Test results published in patent EP0337503B1, “Fumigation methods and compositions” (Entek Corporation, priority 1983, dated 1984).

Experiments:
[1] = tested on: root-knot nematode larvae (Meloidogyne incognita); assay: Greenhouse nematocide experiment with tomato plants, soil drench, root gall count; format: in vivo; conditions: 30 days; for Gall Counts, replicate 3: control 1; for Gall Counts, Mean: control 4.0; for Gall Counts, replicate 2: control 7; for Gall Counts, replicate 1: control 4
Experimental: In the experiment, thirty containers are used, each containing about 500 grams of sterilized sandy loam soil. Each container contains one tomato plant. Each container is injected with four 5-milliliter portions of extract from nematode-infested pepper roots, one inch below the soil surface, producing an initial population of 2000 root-knot nematode larvae (Meloidogyne incognita) per container.
Ten treatments are replicated three times, each treatment consisting of drenching the soil with a solution containing the fumigant to provide the dosage of CS2 given in the following table. The solutions are diluted with sufficient water to saturate the soil. The treatments include calcium tetrathiocarbonate, stabilized ammonium tetrathiocarbonate, and carbon disulfide at three levels, plus an untreated control. After drenching, each container is allowed to stand at ambient conditions. The plants are harvested after 30 days of growth, and soil is removed from the roots by a gentle washing with water. By use of a magnifying glass, the number of root galls is counted on each plant.
Results are summarized below, wherein the "Application" represents milligrams of treatment per kilogram of soil, calculated as the thiocarbonate salt and the equivalent carbon disulfide. Gall counts are mean values from the three replicates.

Phytophthora cinnamomi = assay: Fungicidal test, radial growth of mycelia colonies; format: cell-based
Experimental: (§1) Thiocarbonate solutions are used in a test of their fungicidal properties. Cultures of four plant pathogenic fungi are grown upon potato dextrose agar at room temperature, in diffuse natural lighting. After one week, square blocks having 2 millimeter sides are cut from the edges of actively growing mycelia spots on the agar.
(§2) The blocks are immersed in sterile deionized water, as a control, or in dilutions of thiocarbonate solutions using the sterile water, in a closed container. Subsequently, the blocks are removed and placed upon agar in clean plates, and mycelia are allowed to grow for one week.
(§3) Radial growth of mycelia colonies is measured for each of the six to eight replicate plates used for a particular fungus, and average colony radius is calculated. Percent control is defined by the following equation: Percent control =[1-((Average radius of treated plates)/(Average radius of control plates))]x100 [formula]
(§4) Concentrations given for solutions used to treat the agar blocks are expressed in grams of thiocarbonate solution per liter of diluted solution.

Sclerotium rolfsii = assay: Fungicidal test, radial growth of mycelia colonies; format: cell-based
Experimental: as §1, §2, §3, §4

Verticillium dahliae = assay: Fungicidal test, radial growth of mycelia colonies; format: cell-based
Experimental: as §1, §2, §3, §4

Fusarium oxysporum = assay: Fungicidal test, radial growth of mycelia colonies; format: cell-based; conditions: listed as CaCS4 (2.8%CS2)
Experimental: as §1, §2, §3, §4

[2] = Effect of pH on production of CS2 from thiocarbonates in citrate-phosphate buffers, gas chromatography of air; format: physicochemical
Experimental: Pure carbon disulfide is also injected, for comparison. A syringe is used to periodically sample air in the bottle, and the air is analyzed by gas chromatography.

nematode larvae = assay: In-vitro nematocidal test: larvae treated in aqueous suspension, injected into root zone of tomato plants, gall count; format: in vivo, Meloidogyne incognita; conditions: larvae treated 1 hour; for Gall Count, replicate 2: control 88; for Gall Count, Mean: control 89; for Gall Count, replicate 1: control 90
Experimental: The procedure of Example 2 is repeated except that potassium tetrathiocarbonate is substituted for stabilized ammonium tetrathiocarbonate and an in-vitro nematocidal test is used. In the in-vitro test, the nematode larvae are treated in aqueous suspension for 1 hour at the concentrations of fumigant given in the following table, washed twice with water, and injected into the active root zone of the tomato plants. After thirty days the roots are harvested, examined for galling, giving the results summarized below.

[3] = Decomposition in sandy loam soil at different moisture, CS2 in air space by gas chromatography; format: physicochemical; conditions: hours to maximum CS2 concentration in the air space
Experimental: A sandy loam soil is placed in 1-liter glass bottles, fitted with stoppers having fluorocarbon liners and silicone rubber septa, to give a soil depth of about 4 cm. […] Thiocarbonate solution or carbon disulfide is injected near the bottom of the soil layer, the bottles are promptly sealed, and the air space in the bottles is sampled at intervals with a syringe, for gas chromatographic analysis of CS2. Results are summarized below, wherein degradation time is the number of hours required to achieve the maximum CS2 concentration in the air space.

[4] = Storage stability: loss of ability of aqueous solutions to generate carbon disulfide upon contact with strong acid; format: physicochemical; conditions: aqueous solutions of tetrathiocarbonate salts, about 14 to about 16 percent by weight carbon disulfide equivalent, air-tight glass containers, 49° C.; listed as Ca^++
Experimental: Various tetrathiocarbonate salts are evaluated for storage stability by measuring the loss of the ability of aqueous solutions thereof to generate carbon disulfide upon contact with strong acid. Aqueous solutions of the salts listed in the following table, having an equivalent of from about 14 to about 16 percent by weight carbon disulfide, are stored in air-tight glass containers at a temperature of 49° C.

[5] = highest application: 638/89 ppm ((NH4)2CS4·(NH4)2S), 730/91 (CaCS4), 97 ppm (CS2)
[6] = lowest application: 213/30 ppm ((NH4)2CS4·(NH4)2S), 245/31 (CaCS4), 32 ppm (CS2)
[7] = middle application: 425/60 ppm ((NH4)2CS4·(NH4)2S), 490/61 (CaCS4), 65 ppm (CS2)
[8] = 1 g/l, listed as CaCS4 (2.8%CS2)
[9] = 10 g/l, listed as CaCS4 (2.8%CS2)
[10] = 50 ppm salt (6.3 ppm CS2 equiv. CaCS4; 6.5 ppm K2CS4)
[11] = 100 ppm salt (12.5 ppm CS2 equiv. CaCS4; 13 ppm K2CS4)
[12] = 150 ppm salt (18.8 ppm CS2 equiv. CaCS4; 19.5 ppm K2CS4)

S=C(S)SS [CaCS4, calcium tetrathiocarbonate]
Gall Counts, replicate 3 [1, 5]: 9
Gall Counts, Mean [1, 5]: 7.0
Gall Counts, replicate 2 [1, 5]: 9
Gall Counts, replicate 1 ([1]; highest application: 638 ppm salt/89 ppm Eq. CS2 ((NH4)2CS4·(NH4)2S), 730/91 (CaCS4), 97 ppm (CS2)): 3
Gall Counts, replicate 3 [1, 6]: 23
Gall Counts, Mean [1, 6]: 15.7
Gall Counts, replicate 2 [1, 6]: 8
Gall Counts, replicate 1 ([1]; lowest application: 213 ppm salt/30 ppm Eq. CS2 ((NH4)2CS4·(NH4)2S), 245/31 (CaCS4), 32 ppm (CS2)): 16
Gall Counts, replicate 3 [1, 7]: 7
Gall Counts, Mean [1, 7]: 7.3
Gall Counts, replicate 2 [1, 7]: 4
Gall Counts, replicate 1 ([1]; middle application: 425 ppm salt/60 ppm Eq. CS2 ((NH4)2CS4·(NH4)2S), 490/61 (CaCS4), 65 ppm (CS2)): 11
Percent Control Phytophthora cinnamomi (Phytophthora cinnamomi; [8]): 56%
Percent Control Phytophthora cinnamomi (Phytophthora cinnamomi; [9]): 56%
Percent Control Phytophthora cinnamomi (Phytophthora cinnamomi; 100 g/l): 100%
Percent Control Sclerotium rolfsii (Sclerotium rolfsii; [8]): 46%
Percent Control Sclerotium rolfsii (Sclerotium rolfsii; [9]): 62%
Percent Control Sclerotium rolfsii (Sclerotium rolfsii; 100 g/l): 100%
Percent Control Verticillium dahliae (Verticillium dahliae; [8]): 13%
Percent Control Verticillium dahliae (Verticillium dahliae; [9]): 22%
Percent Control Verticillium dahliae (Verticillium dahliae; 100 g/l): 100%
Percent Control Fusarium oxysporum (Fusarium oxysporum; 1 g/l): 3%
Percent Control Fusarium oxysporum (Fusarium oxysporum; 10 g/l): 18%
Percent Control Fusarium oxysporum (Fusarium oxysporum; 100 g/l thiocarbonate solution per liter of diluted solution): 100%
Half-life (minutes) for production of carbon disulfide ([2]; pH 5.2, 125 milligrams per liter of thiocarbonate ion): 1 min
Half-life (minutes) for production of carbon disulfide ([2]; pH 6.0, 125 milligrams per liter of thiocarbonate ion): 1.8 min
Half-life (minutes) for production of carbon disulfide ([2]; pH 7.0, 125 milligrams per liter of thiocarbonate ion): 2.7 min
Half-life (minutes) for production of carbon disulfide ([2]; pH 8.0, 125 milligrams per liter of thiocarbonate ion, CaCS4 values above pH 7 called unreliable): 8.0 min
Half-life (minutes) for production of carbon disulfide ([2]; pH 9.0, 125 milligrams per liter of thiocarbonate ion, CaCS4 values above pH 7 called unreliable): 11.3 min
Gall Count, replicate 2 (nematode larvae; [10]): 149
Gall Count, Mean (nematode larvae; [10]): 167
Gall Count, replicate 1 (nematode larvae; [10]): 185
Gall Count, replicate 2 (nematode larvae; [11]): 184
Gall Count, Mean (nematode larvae; [11]): 158
Gall Count, replicate 1 (nematode larvae; [11]): 132
Gall Count, replicate 2 (nematode larvae; [12]): 66
Gall Count, Mean (nematode larvae; [12]): 49
Gall Count, replicate 1 (nematode larvae; [12]): 32
Degradation Time ([3]; Soil Moisture 0 % of Saturation): 4 h
Degradation Time ([3]; Soil Moisture 50 % of Saturation): 5 h
Degradation Time ([3]; Soil Moisture 100 % of Saturation): 48 h
Half-life (months) [4]: 5.0 months
